Here are results for 2 compounds from ChEMBL document CHEMBL3758081, “Synthesis and biological evaluation of new naphthalene substituted thiosemicarbazone derivatives as potent antifungal and anticancer agents” (Eur J Med Chem, 2016).

Converted amounts (≈) assume the structure as drawn.

The subject of one series is Candida albicans. The experiment in a line: Antifungal activity against Candida albicans ATCC-90028 after 48 hrs by broth microdilution method. The series is classed as functional. Particulars: ATCC-90028, 48 h. In general terms: In broth dilution the organism is exposed to a series of concentrations in liquid medium.
Series [1] has as its system Salmonella typhimurium. Put plainly: Genotoxicity in Salmonella typhimurium TA1535/pSK1002 assessed as growth factor at 0.625 mg/ml after 2 hrs by umuC assay in presence of Sprague-Dawley rat liver S9 fraction. The format is toxicity, organism-based. The conditions noted are these: salmonella enterica subsp. enterica serovar typhimurium, s9, 2 h.
Series [2] concerns Salmonella typhimurium. The experiment in a line: Mutagenicity in Salmonella typhimurium TA98 at 0.625 mg/ml after 48 hrs by Ames MPF assay in absence of Sprague-Dawley rat liver S9 fraction. The series is classed as toxicity, organism-based. Particulars: salmonella enterica subsp. enterica serovar typhimurium. For orientation: The Ames test uses bacterial strains that need an amino acid and regain growth without it when mutated back.

A short description of series [3]: Genotoxicity in Salmonella typhimurium TA1535/pSK1002 assessed as induction ratio at 5 mg/ml after 2 hrs by umuC assay in presence of Sprague-Dawley rat liver S9 fraction. The format is toxicity, organism-based. Particulars: salmonella enterica subsp. enterica serovar typhimurium.
Series [4] deals with Salmonella typhimurium. Put plainly: Mutagenicity in Salmonella typhimurium TA100 at 1.25 mg/ml after 48 hrs by Ames MPF assay in presence of Sprague-Dawley rat liver S9 fraction. The series is classed as toxicity, organism-based. Particulars: salmonella enterica subsp. enterica serovar typhimurium, s9, 48 h.
The subject of series [5] is Salmonella typhimurium. Put plainly: Genotoxicity in Salmonella typhimurium TA1535/pSK1002 assessed as growth factor at 1.25 mg/ml after 2 hrs by umuC assay in absence of Sprague-Dawley rat liver S9 fraction. The format is toxicity, organism-based. The conditions noted are these: salmonella enterica subsp. enterica serovar typhimurium.
Series [6] can be described thus: Genotoxicity in Salmonella typhimurium TA1535/pSK1002 assessed as induction ratio at 2.5 mg/ml after 2 hrs by umuC assay in presence of Sprague-Dawley rat liver S9 fraction. Particulars: salmonella enterica subsp. enterica serovar typhimurium. The format is toxicity, organism-based.
Series [7] can be described thus: Genotoxicity in Salmonella typhimurium TA1535/pSK1002 assessed as induction ratio at 0.156 mg/ml after 2 hrs by umuC assay in absence of Sprague-Dawley rat liver S9 fraction. The series is classed as toxicity, organism-based. Particulars: salmonella enterica subsp. enterica serovar typhimurium.
The subject of series [8] is Salmonella typhimurium. The experiment in a line: Genotoxicity in Salmonella typhimurium TA1535/pSK1002 assessed as growth factor at 0.625 mg/ml after 2 hrs by umuC assay in absence of Sprague-Dawley rat liver S9 fraction. The series is classed as toxicity, organism-based. Particulars: salmonella enterica subsp. enterica serovar typhimurium.
The test system of series [9] is Salmonella typhimurium. The experiment in a line: Genotoxicity in Salmonella typhimurium TA1535/pSK1002 assessed as growth factor at 5 mg/ml after 2 hrs by umuC assay in presence of Sprague-Dawley rat liver S9 fraction. The format is toxicity, organism-based. Particulars: salmonella enterica subsp. enterica serovar typhimurium, s9, 2 h.
The subject of series [10] is Salmonella typhimurium. The experiment in a line: Mutagenicity in Salmonella typhimurium TA98 at 0.156 mg/ml after 48 hrs by Ames MPF assay in absence of Sprague-Dawley rat liver S9 fraction. Particulars: salmonella enterica subsp. enterica serovar typhimurium. The series is classed as toxicity, organism-based.
The test system of series [11] is Salmonella typhimurium. Put plainly: Mutagenicity in Salmonella typhimurium TA100 at 1.25 mg/ml after 48 hrs by Ames MPF assay in absence of Sprague-Dawley rat liver S9 fraction. Particulars: salmonella enterica subsp. enterica serovar typhimurium. The series is classed as toxicity, organism-based.
Series [12] has as its system Salmonella typhimurium. Put plainly: Mutagenicity in Salmonella typhimurium TA100 at 5 mg/ml after 48 hrs by Ames MPF assay in presence of Sprague-Dawley rat liver S9 fraction. The conditions noted are these: salmonella enterica subsp. enterica serovar typhimurium, s9, 48 h. The format is toxicity, organism-based.
Another series has as its system Aspergillus flavus. Put plainly: Antifungal activity against Aspergillus flavus NRRL-980 after 72 hrs by broth microdilution method. Particulars: NRRL-980, 72 h. The format is functional.
Series [13] has as its system Salmonella typhimurium. The experiment in a line: Mutagenicity in Salmonella typhimurium TA100 at 2.5 mg/ml after 48 hrs by Ames MPF assay in presence of Sprague-Dawley rat liver S9 fraction. The series is classed as toxicity, organism-based. Particulars: salmonella enterica subsp. enterica serovar typhimurium, s9, 48 h.
Series [14] relates to Salmonella typhimurium. The experiment in a line: Mutagenicity in Salmonella typhimurium TA100 at 0.3125 mg/ml after 48 hrs by Ames MPF assay in presence of Sprague-Dawley rat liver S9 fraction. The format is toxicity, organism-based. The conditions noted are these: salmonella enterica subsp. enterica serovar typhimurium, s9, 48 h.
For series [15], the system named is Salmonella typhimurium. Put plainly: Genotoxicity in Salmonella typhimurium TA1535/pSK1002 assessed as growth factor at 0.156 mg/ml after 2 hrs by umuC assay in presence of Sprague-Dawley rat liver S9 fraction. The conditions noted are these: salmonella enterica subsp. enterica serovar typhimurium, s9, 2 h. The format is toxicity, organism-based.
Series [16] concerns Salmonella typhimurium. The experiment in a line: Mutagenicity in Salmonella typhimurium TA98 at 1.25 mg/ml after 48 hrs by Ames MPF assay in absence of Sprague-Dawley rat liver S9 fraction. The series is classed as toxicity, organism-based. The conditions noted are these: salmonella enterica subsp. enterica serovar typhimurium.
For series [17], the system named is Salmonella typhimurium. Put plainly: Genotoxicity in Salmonella typhimurium TA1535/pSK1002 assessed as growth factor at 0.3125 mg/ml after 2 hrs by umuC assay in absence of Sprague-Dawley rat liver S9 fraction. The series is classed as toxicity, organism-based. The conditions noted are these: salmonella enterica subsp. enterica serovar typhimurium.
Series [18] deals with Salmonella typhimurium. The experiment in a line: Mutagenicity in Salmonella typhimurium TA100 at 2.5 mg/ml after 48 hrs by Ames MPF assay in absence of Sprague-Dawley rat liver S9 fraction. The conditions noted are these: salmonella enterica subsp. enterica serovar typhimurium. The format is toxicity, organism-based.
The subject of series [19] is Salmonella typhimurium. The experiment in a line: Mutagenicity in Salmonella typhimurium TA100 at 5 mg/ml after 48 hrs by Ames MPF assay in absence of Sprague-Dawley rat liver S9 fraction. Particulars: salmonella enterica subsp. enterica serovar typhimurium. The format is toxicity, organism-based.
Series [20] in a line: Genotoxicity in Salmonella typhimurium TA1535/pSK1002 assessed as induction ratio at 5 mg/ml after 2 hrs by umuC assay in absence of Sprague-Dawley rat liver S9 fraction. The series is classed as toxicity, organism-based. Particulars: salmonella enterica subsp. enterica serovar typhimurium.
In series [21] the test system is Salmonella typhimurium. Put plainly: Mutagenicity in Salmonella typhimurium TA98 at 5 mg/ml after 48 hrs by Ames MPF assay in absence of Sprague-Dawley rat liver S9 fraction. The format is toxicity, organism-based. The conditions noted are these: salmonella enterica subsp. enterica serovar typhimurium.

Usually MIC stands for the lowest concentration found to suppress growth. Read a low MIC as a more susceptible organism. One may read the fold induction as the ratio of treated to control signal. Regarding `Fc1ccc(F)c(/C=N/NC(=S)Nc2cccc3ccccc23)c1`, the MIC in the series on Candida albicans and in the series on Aspergillus flavus was 250 mg/L (≈ 732 µM) each time. Further, the Activity in the series on Salmonella typhimurium [1] was 0.274; in the series with Salmonella typhimurium [5], 0.115; in the series on Salmonella typhimurium [8] it was 0.14; with Salmonella typhimurium [9], 0.228; in the series on Salmonella typhimurium [15], 0.235; in the series on Salmonella typhimurium [17] it was 0.168. For the same compound, the “fold change (FC)” value is recorded as 0 with Salmonella typhimurium [2]; 0.44 in the series with Salmonella typhimurium [4]; 0.51 in the series on Salmonella typhimurium [10]; 0.36 with Salmonella typhimurium [11]; 0.78 in the series on Salmonella typhimurium [12]; 0.48 with Salmonella typhimurium [13]. Besides, the “fold change (FC)” value in the series with Salmonella typhimurium [14] is recorded as 0.34; in the series on Salmonella typhimurium [16] it was 0.34; in the series with Salmonella typhimurium [18], 0.48; with Salmonella typhimurium [19] it was 0.36; with Salmonella typhimurium [21] it was 0.17. Moreover, the fold induction at 2 h, 5 mg/ml in series [3] turned out to be 1.42; in series [20] it was 1.63. Further, the fold induction at 2 h, 2.5 mg/ml in series [6] came to 1.39. In addition, the fold induction at 2 h, 0.156 mg/ml in [7] was determined as 1.79.
Regarding `Fc1cccc(/C=N/NC(=S)Nc2cccc3ccccc23)c1F`, the MIC against Candida albicans and against Aspergillus flavus was 250 mg/L (≈ 732 µM) in each case. Also, the Activity with Salmonella typhimurium [1] came to 0.236; in the series on Salmonella typhimurium [5], 0.131; in the series on Salmonella typhimurium [8], 0.137; with Salmonella typhimurium [9], 0.24; in the series with Salmonella typhimurium [15], 0.274; in the series on Salmonella typhimurium [17], 0.115. The “fold change (FC)” value in the series with Salmonella typhimurium [2] came to 0; with Salmonella typhimurium [4], 0.68; in the series on Salmonella typhimurium [10] it was 0.17; in the series on Salmonella typhimurium [11], 0.42; in the series with Salmonella typhimurium [12] it was 1.02; with Salmonella typhimurium [13], 0.58. The “fold change (FC)” value is 1.07 in the series on Salmonella typhimurium [14]; 0.34 with Salmonella typhimurium [16]; 0.18 in the series with Salmonella typhimurium [18]; 0.42 in the series with Salmonella typhimurium [19]; 0.34 in the series on Salmonella typhimurium [21]. In addition, the fold induction at 2 h, 5 mg/ml turned out to be 1.46 in series [3] and 1.55 in [20]. Also, the fold induction at 2 h, 2.5 mg/ml in series [6] came to 3.99. For the same compound, the fold induction at 2 h, 0.156 mg/ml in series [7] was 6.
